Assay results reported in US12540120B2, “Herbicidal compounds” (SYNGENTA CROP PROTECTION AG, priority 2019, dated 2026).

Key:
Assay type in all cases: in vivo
[1] = test system: Amaranthus retoflexus (AMARE); test: B1 Post-Emergence Efficacy—Test 1; settings: post-emergence application, 1000 g/ha, evaluated after 13 days
Protocol: (§1) B1 Post-Emergence Efficacy—Test 1 Seeds of a variety of test species are sown in standard soil in pots:—Solanum nigrum (SOLNI), Amaranthus retoflexus (AMARE), Setaria faberi (SETFA), Echinochloa crus-galli (ECHCG), Ipomoea hederacea (IPOHE), Lolium perenne (LOLPE). After 8 days cultivation (post-emergence) under controlled conditions in a glasshouse (at 24/16° C., day/night; 14 hours light; 65% humidity), the plants are sprayed with an aqueous spray solution derived from the formulation of the technical active ingredient in acetone/water (50:50) solution containing 0.5% Tween 20 (polyoxyethylene sorbitan monolaurate, CAS RN 9005-64-5). Compounds are applied at 1000 g/ha. The test plants are then grown in a glasshouse under controlled conditions in a glasshouse (at 24/16° C., day/night; 14 hours light; 65% humidity) and watered twice daily. After 13 days, the test is evaluated for the percentage damage caused to the plant. The biological activities are assessed on a five point scale (5=80-100%; 4=60-79%; 3=40-59%; 2=20-39%; 1=0-19%). A blank value in the table is indicative that the compound was not tested on that species.

[2] = test system: Echinochloa crus-galli (ECHCG); test: B1 Post-Emergence Efficacy—Test 1; settings: post-emergence application, 1000 g/ha, evaluated after 13 days
Protocol: as §1

[3] = test system: Ipomoea hederacea (IPOHE); test: B1 Post-Emergence Efficacy—Test 1; settings: post-emergence application, 1000 g/ha, evaluated after 13 days
Protocol: as §1

Lolium perenne (LOLPE) [4] = test: B1 Post-Emergence Efficacy—Test 1; settings: post-emergence application, 1000 g/ha, evaluated after 13 days
Protocol: as §1

Setaria faberi (SETFA) [5] = test: B1 Post-Emergence Efficacy—Test 1; settings: post-emergence application, 1000 g/ha, evaluated after 13 days
Protocol: as §1

Solanum nigrum (SOLNI) [6] = test: B1 Post-Emergence Efficacy—Test 1; settings: post-emergence application, 1000 g/ha, evaluated after 13 days
Protocol: as §1

[7] = test system: Amaranthus retoflexus (AMARE); test: B2 Post-Emergence Efficacy—Test 2; settings: post-emergence application, 250 g/ha, evaluated after 13 days (Test 2)
How it was run: (§2)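 Damage rated 13 days after treatment on a 1–5 scale (1=0-19%, 5=80-100%). Compounds were applied at 250 g/ha in acetone/water (50:50) with 0.5% Tween 20 to 8-day-old seedlings, grown under glasshouse conditions of 24/16 °C day/night, 14 h light, 65% humidity.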

[8] = test system: Echinochloa crus-galli (ECHCG); test: B2 Post-Emergence Efficacy—Test 2; settings: post-emergence application, 250 g/ha, evaluated after 13 days (Test 2)
How it was run: as §2

[9] = test system: Ipomoea hederacea (IPOHE); test: B2 Post-Emergence Efficacy—Test 2; settings: post-emergence application, 250 g/ha, evaluated after 13 days (Test 2)
How it was run: as §2

Lolium perenne (LOLPE) [10] = test: B2 Post-Emergence Efficacy—Test 2; settings: post-emergence application, 250 g/ha, evaluated after 13 days (Test 2)
How it was run: as §2

Setaria faberi (SETFA) [11] = test: B2 Post-Emergence Efficacy—Test 2; settings: post-emergence application, 250 g/ha, evaluated after 13 days (Test 2)
How it was run: as §2

Solanum nigrum (SOLNI) [12] = test: B2 Post-Emergence Efficacy—Test 2; settings: post-emergence application, 250 g/ha, evaluated after 13 days (Test 2)
How it was run: as §2

[13] = test system: Amaranthus retoflexus (AMARE); test: B4 Pre-Emergence Efficacy—Test 1; settings: pre-emergence application, 1000 g/ha, evaluated after 13 days
Protocol: (§3) B4 Pre-Emergence Efficacy—Test 1 Seeds of a variety of test species were sown in standard soil in pots: Solanum nigrum (SOLNI), Amaranthus retoflexus (AMARE), Setaria faberi (SETFA), Echinochloa crus-galli (ECHCG), Ipomoea hederacea (IPOHE), Lolium perenne (LOLPE). After cultivation for one day (pre-emergence) under controlled conditions in a glasshouse (at 24/16° C., day/night; 14 hours light; 65% humidity), the plants were sprayed with an aqueous spray solution derived from the formulation of the technical active ingredient in acetone/water (50:50) solution containing 0.5% Tween 20 (polyoxyethelyene sorbitan monolaurate, CAS RN 9005-64-5). Compounds are applied at 1000 g/ha. The test plants were then grown in a glasshouse under controlled conditions (at 24/16° C., day/night; 14 hours light; 65% humidity) and watered twice daily. After 13 days, the test is evaluated for the percentage damage caused to the plant. The biological activities are assessed on a five point scale (5=80-100%; 4=60-79%; 3=40-59%; 2=20-39%; 1=0-19%). A blank value in the table is indicative that the compound was not tested on that species.

[14] = test system: Echinochloa crus-galli (ECHCG); test: B4 Pre-Emergence Efficacy—Test 1; settings: pre-emergence application, 1000 g/ha, evaluated after 13 days
Protocol: as §3

[15] = test system: Ipomoea hederacea (IPOHE); test: B4 Pre-Emergence Efficacy—Test 1; settings: pre-emergence application, 1000 g/ha, evaluated after 13 days
Protocol: as §3

Lolium perenne (LOLPE) [16] = test: B4 Pre-Emergence Efficacy—Test 1; settings: pre-emergence application, 1000 g/ha, evaluated after 13 days
Protocol: as §3

Setaria faberi (SETFA) [17] = test: B4 Pre-Emergence Efficacy—Test 1; settings: pre-emergence application, 1000 g/ha, evaluated after 13 days
Protocol: as §3

Solanum nigrum (SOLNI) [18] = test: B4 Pre-Emergence Efficacy—Test 1; settings: pre-emergence application, 1000 g/ha, evaluated after 13 days
Protocol: as §3

[19] = test system: Amaranthus retoflexus (AMARE); test: B5 Pre-Emergence Efficacy—Test 2; settings: 250 g/ha, evaluated after 13 days
How it was run: (§4)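 Pre-emergence glasshouse test: seeds sown in standard soil, sprayed one day later with compound at 250 g/ha in acetone/water (50:50) with 0.5% Tween 20. Grown at 24/16° C day/night, 14 h light, 65% humidity; percentage damage scored after 13 days on a five-point scale (5=80-100% to 1=0-19%).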

Solanum nigrum (SOLNI) [20] = test: B5 Pre-Emergence Efficacy—Test 2; settings: 250 g/ha, evaluated after 13 days
How it was run: as §4

[21] = test system: Echinochloa crus-galli (ECHCG); test: B5 Pre-Emergence Efficacy—Test 2; set-up: key: 5-point scale: 5=80-100%, 4=60-79%, 3=40-59%, 2=20-39%, 1=0-19% damage; settings: 250 g/ha, evaluated after 13 days
How it was run: as §4

[22] = test system: Ipomoea hederacea (IPOHE); test: B5 Pre-Emergence Efficacy—Test 2; set-up: key: 5-point scale: 5=80-100%, 4=60-79%, 3=40-59%, 2=20-39%, 1=0-19% damage; settings: 250 g/ha, evaluated after 13 days
How it was run: as §4

Lolium perenne (LOLPE) [23] = test: B5 Pre-Emergence Efficacy—Test 2; set-up: key: 5-point scale: 5=80-100%, 4=60-79%, 3=40-59%, 2=20-39%, 1=0-19% damage; settings: 250 g/ha, evaluated after 13 days
How it was run: as §4

Setaria faberi (SETFA) [24] = test: B5 Pre-Emergence Efficacy—Test 2; set-up: key: 5-point scale: 5=80-100%, 4=60-79%, 3=40-59%, 2=20-39%, 1=0-19% damage; settings: 250 g/ha, evaluated after 13 days
How it was run: as §4

Cc1nn(C)c(=O)c(-c2c(F)ccc(Cl)c2CCc2ccc(C#N)cc2)c1O [Compound A-1.036, 4-[2-[6-chloro-3-fluoro-2-(5-hydroxy-2,6-dimethyl-3-oxo-pyridazin-4-yl)phenyl]ethyl]benzonitrile]
5 (5=80-100%): percentage damage caused to the plant, five point scale, AMARE [1] | percentage damage caused to the plant, five point scale, ECHCG [2] | percentage damage caused to the plant, five point scale, IPOHE [3] | percentage damage caused to the plant, five point scale, LOLPE (Lolium perenne (LOLPE) [4]) | percentage damage caused to the plant, five point scale, SETFA (Setaria faberi (SETFA) [5]) | percentage damage caused to the plant, five point scale, SOLNI (Solanum nigrum (SOLNI) [6]) | percentage damage caused to the plant, five point scale, AMARE [7] | percentage damage caused to the plant, five point scale, ECHCG [8] | percentage damage caused to the plant, five point scale, IPOHE [9] | percentage damage caused to the plant, five point scale, LOLPE (Lolium perenne (LOLPE) [10]) | percentage damage caused to the plant, five point scale, SETFA (Setaria faberi (SETFA) [11]) | percentage damage caused to the plant, five point scale, SOLNI (Solanum nigrum (SOLNI) [12]) | percentage damage caused to the plant, five point scale, AMARE [13] | percentage damage caused to the plant, five point scale, ECHCG [14] | percentage damage caused to the plant, five point scale, IPOHE [15] | percentage damage caused to the plant, five point scale, LOLPE (Lolium perenne (LOLPE) [16]) | percentage damage caused to the plant, five point scale, SETFA (Setaria faberi (SETFA) [17]) | percentage damage caused to the plant, five point scale, SOLNI (Solanum nigrum (SOLNI) [18]) | Control of weed species after pre-emergence application, AMARE (percentage damage, five point scale) [19] | Control of weed species after pre-emergence application, SOLNI (percentage damage, five point scale) (Solanum nigrum (SOLNI) [20]) | Control of weed species after pre-emergence application, ECHCG (percentage damage, five point scale) [21] | Control of weed species after pre-emergence application, IPOHE (percentage damage, five point scale) [22] | Control of weed species after pre-emergence application, LOLPE (percentage damage, five point scale) (Lolium perenne (LOLPE) [23]) | Control of weed species after pre-emergence application, SETFA (percentage damage, five point scale) (Setaria faberi (SETFA) [24])
